For orientation: IC50 means the concentration that gives 50% inhibition. Higher therefore signals lower potency.

IC50 data for 10 compounds are collected here from ChEMBL document CHEMBL1144726, “"Virtual fragment linking": an approach to identify potent binders from low affinity fragment hits” (J Med Chem, 2008).

Sequence of Estrogen receptor beta (Q92731 whole entry): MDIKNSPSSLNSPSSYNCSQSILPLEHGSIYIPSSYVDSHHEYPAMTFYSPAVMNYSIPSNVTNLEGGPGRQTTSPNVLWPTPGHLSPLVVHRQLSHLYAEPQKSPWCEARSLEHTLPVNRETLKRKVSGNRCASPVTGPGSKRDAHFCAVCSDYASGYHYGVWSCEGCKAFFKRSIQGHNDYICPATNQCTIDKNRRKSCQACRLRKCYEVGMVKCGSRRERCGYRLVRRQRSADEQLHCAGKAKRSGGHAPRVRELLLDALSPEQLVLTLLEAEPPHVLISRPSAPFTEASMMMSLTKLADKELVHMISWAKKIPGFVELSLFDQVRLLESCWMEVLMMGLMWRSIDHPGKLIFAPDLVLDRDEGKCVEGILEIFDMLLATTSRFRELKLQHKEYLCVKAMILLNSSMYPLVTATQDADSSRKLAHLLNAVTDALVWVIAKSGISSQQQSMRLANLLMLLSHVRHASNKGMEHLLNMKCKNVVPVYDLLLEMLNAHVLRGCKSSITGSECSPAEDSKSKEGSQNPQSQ
Sequence of Nitric oxide synthase, inducible (P35228 whole entry): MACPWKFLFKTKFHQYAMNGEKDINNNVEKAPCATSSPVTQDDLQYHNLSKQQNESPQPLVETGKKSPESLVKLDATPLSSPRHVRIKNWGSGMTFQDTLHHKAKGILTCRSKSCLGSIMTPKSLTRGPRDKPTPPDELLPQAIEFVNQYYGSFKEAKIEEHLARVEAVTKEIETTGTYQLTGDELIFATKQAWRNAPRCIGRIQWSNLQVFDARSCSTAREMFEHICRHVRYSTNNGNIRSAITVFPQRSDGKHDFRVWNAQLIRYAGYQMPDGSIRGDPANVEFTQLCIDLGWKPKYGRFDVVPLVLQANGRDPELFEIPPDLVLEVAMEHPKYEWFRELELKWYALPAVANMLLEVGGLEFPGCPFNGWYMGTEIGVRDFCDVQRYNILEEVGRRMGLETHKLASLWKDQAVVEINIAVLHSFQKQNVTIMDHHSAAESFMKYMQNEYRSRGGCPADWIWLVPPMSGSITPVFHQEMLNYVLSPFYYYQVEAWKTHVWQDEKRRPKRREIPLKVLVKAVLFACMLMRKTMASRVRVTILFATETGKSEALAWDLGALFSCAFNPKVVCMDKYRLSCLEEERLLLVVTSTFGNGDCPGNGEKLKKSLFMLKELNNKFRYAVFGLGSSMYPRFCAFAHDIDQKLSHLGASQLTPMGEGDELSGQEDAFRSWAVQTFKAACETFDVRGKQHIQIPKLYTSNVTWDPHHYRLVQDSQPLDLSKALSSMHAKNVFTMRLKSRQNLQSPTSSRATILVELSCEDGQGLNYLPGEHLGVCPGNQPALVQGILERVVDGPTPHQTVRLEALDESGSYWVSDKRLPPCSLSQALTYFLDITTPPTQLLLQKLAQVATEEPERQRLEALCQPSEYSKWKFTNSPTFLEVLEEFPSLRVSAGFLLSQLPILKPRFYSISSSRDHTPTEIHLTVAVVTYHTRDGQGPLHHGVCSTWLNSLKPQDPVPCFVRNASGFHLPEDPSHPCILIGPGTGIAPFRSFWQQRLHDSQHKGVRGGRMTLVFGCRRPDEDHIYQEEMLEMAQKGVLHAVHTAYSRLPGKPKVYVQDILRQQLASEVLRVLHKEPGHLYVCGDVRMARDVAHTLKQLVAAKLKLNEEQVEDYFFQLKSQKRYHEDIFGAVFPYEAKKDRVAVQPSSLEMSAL

The first experiment addresses Nitric oxide synthase, inducible (Homo sapiens, UniProt P35228).
As to `Cc1cccc2c1C(N)=NC(C1CCC1)N2` (stereo not given), the IC50 amounted to 1200 nM.

Another experiment concerns the target Estrogen receptor beta (Homo sapiens, UniProt Q92731).
Consider `Oc1ccc(-c2cccc(F)c2)cc1`, for which the half-maximal inhibitory concentration (IC50) worked out at 1200 nM.

In the case of `Oc1ccc(-n2nc3ccccc3c2Cl)cc1`, the 50% inhibitory concentration (IC50) came to 1100 nM.

Consider `Nc1ccc(-c2ccc(O)cc2)cc1Cl`, for which half-maximal inhibition (IC50) was put at 2900 nM.

On to `Oc1ccc(-c2ccccc2)cc1Cl`, for which the IC50 stood at 3100 nM.

Compound `COc1ccc(-c2ccc(O)cc2)cc1` returned an IC50 of 2400 nM.

`N#Cc1ccccc1-c1ccc(O)cc1` showed an IC50 of 1800 nM.

On to `Oc1ccc2nn(-c3ccccc3)cc2c1`, for which inhibition was half-maximal at 10000 nM (IC50).

For `Cc1cc(O)ccc1-c1ccccc1`, the IC50 came to 4000 nM.

In turn, `Cc1cc(-c2cccc(Cl)c2)ccc1O` had an IC50 of 2100 nM.
